Test results as given in patent publication US20170035863A1 (UNIVERSITY OF LEEDS, priority 2014, published 2017).

Columns and labels:
[1] = test system: human normal pool platelet poor plasma; assay: Activated Partial Thromboplastin Time (aPTT) clotting assay; type: biochemical; conditions: for Mean aPTT: platelet poor plasma, mean ± SEM
Procedure: The activated Partial Thromboplastin Time (aPTT) employed was the PTT Automate 5 reagent kit from Stago. The coagulometer (Start 4, Diagnostica Stago, Asnieres sur Seine Cedex, France) was preheated to 37° C. prior to starting any measurements. A sample of human normal pool platelet poor plasma (n=22) was defrosted at 37° C. from −80° C. […] Then 48.5 μL of PTT automate was added to the cuvette and left to incubate for 180 seconds at 37° C. in the coagulometer, after which 50 μL of 25 mM calcium chloride was immediately added to initiate clotting. At the end of the test, the time clotting times were recorded.
This method is known to the person skilled in the art.

[2] = test system: murine tail bleeding model; assay: Murine tail bleeding time; type: in vivo, C57BL/6 male mice
Text: (§1) The same animals employed for anticoagulant efficacy were subjected to tail bleeding immediately following the end of the efficacy experiments. Tails were cut with a scalpel at 2 mm diameter using a home-made device for measuring tail diameter. The tails were immediately suspended into lml warmed saline and the time taken to cessation of bleeding monitored (panel A). The collected saline/blood mix at the end of the experiments were frozen and subjected to haemoglobin determination (panel B).
as §1, with “1 ml” for “lml”, “monitored.” for “monitored (panel A). The collected saline/blood mix at the end of the experiments were frozen and subjected to haemoglobin determination (panel B).”

thrombin = thrombin (Homo sapiens, UniProt P00734); assay: Thrombin activity, chromogenic substrate S-2238 (IC50); type: biochemical
Procedure: Thrombin activity was measured using a chromogenic substrate S-2238 (Quadratec). […] Kinetic readings at 405 nm were monitored every 12 seconds for a total duration of 3 hours at 37° C. Gradients of initial rates were determined and employed to calculate IC50 values using Grafit software.

| Molecule | Mean aPTT ([1]; 0.11 nM, 3 min incubation) | Mean aPTT ([1]; 0.44 nM) | Mean aPTT ([1]; 0.88 nM) | Mean aPTT ([1]; 1.75 nM) | Mean aPTT ([1]; 3.50 nM) | Mean aPTT ([1]; 7.00 nM) | Mean aPTT ([1]; 14.00 nM) | Mean aPTT ([1]; 28.00 nM) | Mean aPTT ([1]; 56.00 nM) | Mean aPTT ([1]; 112.00 nM) | Mean aPTT ([1]; 224.00 nM) | Mean aPTT ([1]; 448.00 nM) | prolongation of bleeding time ([2]; 20 mg/kg, at the end of the experiment) | risk of bleeding ([2]; at doses achieving 50% inhibition of fibrin clot formation) | prolongation of bleeding time ([2]; at the dose required to achieve at least 50% inhibition of fibrin clot formation) | potency in aPTT, comparison ([1]; in plasma) | IC50 (thrombin) |
| --- | --- | --- | --- | --- | --- | --- | --- | --- | --- | --- | --- | --- | --- | --- | --- | --- | --- |
| bivalirudin [reference compound] | 32.03 ± 0.35 s | 31.07 ± 0.09 s | 31.20 ± 0.06 s | 31.47 ± 0.37 s | 32.43 ± 0.13 s | 36.30 ± 0.20 s | 40.27 ± 0.60 s | 46.13 ± 1.25 s | 53.97 ± 0.26 s | 63.43 ± 2.32 s | 79.50 ± 0.75 s | 89.77 ± 3.99 s |  |  |  |  |  |
| CC[C@H](C)[C@H](NC(=O)[C@H](C)NC(=O)[C@H](CCC(=O)O)NC(=O)[C@H](Cc1ccccc1)NC(=O)[C@H](CC(=O)O)NC(=O)[C@H](Cc1ccccc1)NC(=O)[C@@H]1CCCN1C(=O)[C@@H]1CCCN1C(=O)[C@H](C)NC(=O)[C@@H](NC(=O)[C@H](CCCCN)NC(=O)[C@H](Cc1c[nH]cn1)NC(=O)[C@H](CCSC)NC(=O)[C@H](CCCNC(=N)N)NC(=O)[C@@H]1CCCN1C(=O)[C@H](CCC(=O)O)NC(=O)[C@H](C)NC(=O)[C@@H](NC(=O)[C@@H](N)CC(=O)O)C(C)C)[C@@H](C)O)C(=O)N1CCC[C@H]1C(=O)N[C@@H](CCC(=O)O)C(=O)N[C@@H](CCC(=O)O)C(=O)N[C@@H](Cc1ccc(O)cc1)C(=O)N[C@@H](Cc1ccc(OS(=O)(=O)O)cc1)C(=O)N[C@@H](CC(C)C)C(=O)O [SYM-3491-SO3] | 32.03 ± 0.07 s | 32.07 ± 0.03 s | 31.83 ± 0.03 s | 32.20 ± 0.15 s | 32.33 ± 0.07 s | 33.27 ± 0.27 s | 35.33 ± 0.33 s | 38.23 ± 0.48 s | 44.17 ± 0.43 s | 49.87 ± 0.20 s | 60.33 ± 0.17 s | 70.97 ± 0.69 s | ~2 fold | increases risk of bleeding | ~2 fold | slightly less than variegin | 172 ± 6.5 nM |
